Where a name gives a salt, the structure may show the parent alone. Some results are limits rather than exact numbers.

We go through 26 compounds from patent US11267825B2 (AICURIS GMBH & CO. KG, priority 2017, dated 2022).

The subject of one assay is HBV. Kind of assay: Determination of HBV DNA from the supernatants of HepAD38 cells (anti-HBV activity). Type of assay: cell-based, hepatitis B virus. As to conditions: Hepatitis B virus, 144 h; HBV DNA in HepAD38 supernatant at day 6; read-out: Cell Activity (EC50). As for the experimental part: Determination of HBV DNA from the Supernatants of HepAD38 Cells
The anti-HBV activity was analysed in the stable transfected cell line HepAD38, which has been described to secrete high levels of HBV virion particles (Ladner et al., 1997). In brief, HepAD38 cells were cultured at 37° C. at 5% CO2 and 95% humidity in 200 μl maintenance medium, which was Dulbecco's modified Eagle's medium/Nutrient Mixture F-12 (Gibco, Karlsruhe), 10% fetal bovine serum (PAN Biotech Aidenbach) supplemented with 50 μg/ml penicillin/streptomycin (Gibco, Karlsruhe), 2 mM L-glutamine (PAN Biotech, Aidenbach), 400 μg/ml G418 (AppliChem, Darmstadt) and 0.3 μg/ml tetracycline. Cells were subcultured once a week in a 1:5 ratio, but were usually not passaged more than ten times. For the assay 60,000 cells were seeded in maintenance medium without any tetracycline into each well of a 96-well plate and treated with serial half-log dilutions of test compound. To minimize edge effects the outer 36 wells of the plate were not used but were filled with assay medium. On each assay plate six wells for the virus control (untreated HepAD38 cells) and six wells for the cell control (HepAD38 cells treated with 0.3 μg/ml tetracycline) were allocated, respectively. In addition, one plate set with reference inhibitors like BAY 41-4109, entecavir, and lamivudine instead of screening compounds were prepared in each experiment. In general, experiments were performed thrice in triplicates. At day 6 HBV DNA from 100 μl filtrated cell culture supernatant (AcroPrep Advance 96 Filter Plate, […] Supor membran, PALL GmbH, Dreieich) was automatically purified on the MagNa Pure LC instrument using the MagNA Pure 96 DNA and Viral NA Small Volume Kit (Roche Diagnostics, Mannheim) according to the instructions of the manufacturer. EC50 values were calculated from relative copy numbers of HBV DNA. In brief, 5 μl of the 100 μl eluate containing HBV DNA were subjected to PCR LC480 Probes Master Kit (Roche) together with 1 μM antisense primer […], 0.5 μM sense primer […], 0.3 μM hybprobes […]-FL and LC640-[…]-PH (TIBMolBiol, Berlin) to a final volume of 12.5 μl. The PCR was performed on the Light Cycler 480 real time system (Roche Diagnostics, Mannheim) using the following protocol: Pre-incubation for 1 min at 95° C., amplification: 40 cycles×(10 sec at 95° C., 50 sec at 60° C., 1 sec at 70° C.), cooling for 10 sec at 40° C. Viral load was quantitated against known standards using HBV plasmid DNA of pCH-9/3091 (Nassal et al., 1990, Cell 63: 1357-1363) and the LightCycler 480 SW 1.5 software (Roche Diagnostics, Mannheim) and EC50 values were calculated using non-linear regression with GraphPad Prism 6 (GraphPad Software Inc., La Jolla, USA).
For orientation: EC50 means the concentration at which the effect is half-maximal. With `CC(C)c1cccc2[nH]c(C(=O)N3CCc4nc(NCC5(O)CCC5)sc4C3)cc12` [Example 368, 1-[({5-[4-(propan-2-yl)-1H-indole-2-carbonyl]-4H,5H,6H,7H-[1,3]thiazolo[5,4-c]pyridin-2-yl}amino)methyl]cyclobutan-1-ol], the EC50 is less than 1000 nM. Take `O=C(c1cc2ccccc2[nH]1)N1CCc2nc(N[C@@H]3CCCC[C@@H]3O)sc2C1` [Example 348, (1S,2R)-2-{[5-(1H-indole-2-carbonyl)-4H,5H,6H,7H-[1,3]thiazolo[5,4-c]pyridin-2-yl]amino}cyclohexan-1-ol]: the EC50 is less than 1000 nM. On the same count and under the same terms, to `O=C(c1cc2ccccc2[nH]1)N1CCc2nc(NCCn3ccnc3)sc2C1` [Example 349, N-[2-(1H-imidazol-1-yl)ethyl]-5-(1H-indole-2-carbonyl)-4H,5H,6H,7H-[1,3]thiazolo[5,4-c]pyridin-2-amine] belongs less than 1000 nM. With `O=C(c1cc2ccccc2[nH]1)N1CCc2nc(NCC(F)(F)C3CC3)sc2C1` [Example 436, N-(2-cyclopropyl-2,2-difluoroethyl)-5-(1H-indole-2-carbonyl)-4H,5H,6H,7H-[1,3]thiazolo[5,4-c]pyridin-2-amine], the EC50 was less than 1000 nM. Turning to `O=C(c1cc2c(Cl)cc(F)cc2[nH]1)N1CCc2nc(N[C@H]3CC[C@@H](O)CC3)sc2C1` [Example 343, (1s,4s)-4-{[5-(4-chloro-6-fluoro-1H-indole-2-carbonyl)-4H,5H,6H,7H-[1,3]thiazolo[5,4-c]pyridin-2-yl]amino}cyclohexan-1-ol], the EC50 is less than 1000 nM. For `O=C(c1cc2ccccc2[nH]1)N1CCc2nc(NC(=O)C3(O)CC3)sc2C1` [Example 346, 1-hydroxy-N-[5-(1H-indole-2-carbonyl)-4H,5H,6H,7H-[1,3]thiazolo[5,4-c]pyridin-2-yl]cyclopropane-1-carboxamide], the 50% effective concentration (EC50) was less than 1000 nM.

Consider `O=C(c1cc2c(C(F)(F)F)cccc2[nH]1)N1CCc2nc(NCC3(O)CCC3)sc2C1` [Example 374, 1-[({5-[4-(trifluoromethyl)-1H-indole-2-carbonyl]-4H,5H,6H,7H-[1,3]thiazolo[5,4-c]pyridin-2-yl}amino)methyl]cyclobutan-1-ol], for which the concentration giving a half-maximal response (EC50) is less than 1000 nM. The same measure, in the same setting: for `CC(O)c1ccc(F)c2[nH]c(C(=O)N3CCc4nc(NCC5CCOC5)sc4C3)cc12` (centres unmarked) [Example 257, 1-[7-fluoro-2-(2-{[(oxolan-3-yl)methyl]amino}-4H,5H,6H,7H-[1,3]thiazolo[5,4-c]pyridine-5-carbonyl)-1H-indol-4-yl]ethan-1-ol] the value was less than 100000 nM; for `O=C(c1cc2cc(F)c(Cl)cc2[nH]1)N1CCc2nc(NCC3(O)CCC3)sc2C1` [Example 373, 1-({[5-(6-chloro-5-fluoro-1H-indole-2-carbonyl)-4H,5H,6H,7H-[1,3]thiazolo[5,4-c]pyridin-2-yl]amino}methyl)cyclobutan-1-ol], less than 1000 nM. With `CC(C)CC(CO)CNc1nc2c(s1)CN(C(=O)c1cc3ccccc3[nH]1)CC2` (centres unmarked) [Example 287, 2-({[5-(1H-indole-2-carbonyl)-4H,5H,6H,7H-[1,3]thiazolo[5,4-c]pyridin-2-yl]amino}methyl)-4-methylpentan-1-ol], the EC50 is less than 1000 nM.

In the case of `CCOC(=O)C1(CNc2nc3c(s2)CN(C(=O)c2cc4ccccc4[nH]2)CC3)CC1` [Example 317, Ethyl 1-({[5-(1H-indole-2-carbonyl)-4H,5H,6H,7H-[1,3]thiazolo[5,4-c]pyridin-2-yl]amino}methyl)cyclopropane-1-carboxylate], the EC50 lay in the range of 1000 to 10000 nM.

Regarding `N#CC12CC(Nc3nc4c(s3)CN(C(=O)c3cc5ccccc5[nH]3)CC4)(C1)C2` [Example 435, 3-{[5-(1H-indole-2-carbonyl)-4H,5H,6H,7H-[1,3]thiazolo[5,4-c]pyridin-2-yl]amino}bicyclo[1.1.1]pentane-1-carbonitrile], the EC50 is less than 1000 nM. On the same count and under the same terms, for `Cc1c(F)ccc2[nH]c(C(=O)N3CCc4nc(N)sc4C3)cc12` [Example 437, 5-(5-fluoro-4-methyl-1H-indole-2-carbonyl)-4H,5H,6H,7H-[1,3]thiazolo[5,4-c]pyridin-2-amine] the value was less than 1000 nM. As for `Cc1cc(F)cc2[nH]c(C(=O)N3CCc4nc(NC(=O)C5(C)CC5)sc4C3)cc12` [Example 307, N-[5-(6-fluoro-4-methyl-1H-indole-2-carbonyl)-4H,5H,6H,7H-[1,3]thiazolo[5,4-c]pyridin-2-yl]-1-methylcyclopropane-1-carboxamide], the EC50 is less than 1000 nM.

On to `O=C(c1cc2ccccc2[nH]1)N1CCc2nc(N[C@H]3CCC[C@@H](O)C3)sc2C1` [Example 350, (1R,3S)-3-{[5-(1H-indole-2-carbonyl)-4H,5H,6H,7H-[1,3]thiazolo[5,4-c]pyridin-2-yl]amino}cyclohexan-1-ol], for which the EC50 was less than 1000 nM. The same measure, in the same setting: for `O=C(c1cc2ccccc2[nH]1)N1CCc2nc(NC(=O)C3(F)CC3)sc2C1` [Example 337, 1-fluoro-N-[5-(1H-indole-2-carbonyl)-4H,5H,6H,7H-[1,3]thiazolo[5,4-c]pyridin-2-yl]cyclopropane-1-carboxamide] the value was less than 1000 nM; for `O=C(CC1CCOC1)Nc1nc2c(s1)CN(C(=O)c1cc3ccccc3[nH]1)CC2` (centres unmarked) [Example 351, N-[5-(1H-indole-2-carbonyl)-4H,5H,6H,7H-[1,3]thiazolo[5,4-c]pyridin-2-yl]-2-(oxolan-3-yl)acetamide], less than 1000 nM; for `O=C(Nc1nc2c(s1)CN(C(=O)c1cc3c(F)c(F)ccc3[nH]1)CC2)C1CCOCC1` [Example 398, N-[5-(4,5-difluoro-1H-indole-2-carbonyl)-4H,5H,6H,7H-[1,3]thiazolo[5,4-c]pyridin-2-yl]oxane-4-carboxamide], less than 1000 nM. Same read-out and setting: for `CCc1cc(F)cc2[nH]c(C(=O)N3CCc4nc(NC(=O)C5(C)CC5)sc4C3)cc12` [Example 306, N-[5-(4-ethyl-6-fluoro-1H-indole-2-carbonyl)-4H,5H,6H,7H-[1,3]thiazolo[5,4-c]pyridin-2-yl]-1-methylcyclopropane-1-carboxamide] the value was less than 1000 nM; for `CC(=O)N1CC(C(=O)Nc2nc3c(s2)CN(C(=O)c2cc4ccccc4[nH]2)CC3)C1` [Example 382, 1-acetyl-N-[5-(1H-indole-2-carbonyl)-4H,5H,6H,7H-[1,3]thiazolo[5,4-c]pyridin-2-yl]azetidine-3-carboxamide], less than 1000 nM; for `CC1(C(=O)Nc2nc3c(s2)CN(C(=O)c2cc4c(Cl)cccc4[nH]2)CC3)CC1` [Example 308, N-[5-(4-chloro-1H-indole-2-carbonyl)-4H,5H,6H,7H-[1,3]thiazolo[5,4-c]pyridin-2-yl]-1-methylcyclopropane-1-carboxamide], less than 1000 nM. Same read-out and setting: for `O=C(c1cc2ccccc2[nH]1)N1CCc2nc(NCC3(C(=O)O)CC3)sc2C1` [Example 345, 1-({[5-(1H-indole-2-carbonyl)-4H,5H,6H,7H-[1,3]thiazolo[5,4-c]pyridin-2-yl]amino}methyl)cyclopropane-1-carboxylic acid] the value was 1000 to 10000 nM; for `CC1(C(=O)Nc2nc3c(s2)CN(C(=O)c2cc4cc(F)c(Cl)cc4[nH]2)CC3)CC1` [Example 304, N-[5-(6-chloro-5-fluoro-1H-indole-2-carbonyl)-4H,5H,6H,7H-[1,3]thiazolo[5,4-c]pyridin-2-yl]-1-methylcyclopropane-1-carboxamide], less than 1000 nM. Regarding `O=C(c1cc2ccccc2[nH]1)N1CCc2nc(NCC3(O)CC(F)(F)C3)sc2C1` [Example 440, 3,3-difluoro-1-({[5-(1H-indole-2-carbonyl)-4H,5H,6H,7H-[1,3]thiazolo[5,4-c]pyridin-2-yl]amino}methyl)cyclobutan-1-ol], the EC50 was less than 1000 nM.

For `O=C(c1cc2cc(F)c(F)cc2[nH]1)N1CCc2nc(NCC3(O)CCC3)sc2C1` [Example 369, 1-({[5-(5,6-difluoro-1H-indole-2-carbonyl)-4H,5H,6H,7H-[1,3]thiazolo[5,4-c]pyridin-2-yl]amino}methyl)cyclobutan-1-ol], the EC50 was less than 1000 nM.

Staying with this assay, now noted: Hepatitis B virus, HePAD38, 144 h, read-out: Cell Activity (EC50).
In the case of `O=C(Nc1nc2c(s1)CN(C(=O)c1cc3ccccc3[nH]1)CC2)C1CNC1` [Example 386, N-[5-(1H-indole-2-carbonyl)-4H,5H,6H,7H-[1,3]thiazolo[5,4-c]pyridin-2-yl]azetidine-3-carboxamide hydrochloride], the EC50 was 1000 to 10000 nM.
